Experimental data from patent US20250059188A1, “ARYLSULPHONAMIDE COMPOUNDS” (Anaxis Pharma Pty Ltd, priority 2021, published 2025).

How the values were obtained:
U937 cells = assay: Counter screen: U937 cell viability without TSQ cocktail (off-target effect); parameters: species or system human; settings: Homo sapiens, U-937, compound without TSQ cocktail, read-out: Off-target effect (IC50 cell-based assay)
Outline: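 Off-target viability counter screen: compounds titrated 36 μM down 1:3 over 10 points (0.3% DMSO) on 20,000 U937 cells/well, no TNF/Smac mimetic/Q-VD-OPh added, 48 h incubation. ATP-based CellTiter-Glo luminescence, four-parameter logistic IC50.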

[1] = system: Immortalised Mouse Dermal Fibroblasts (MDFs); assay: Inhibition of TSI induced necroptosis in mouse dermal fibroblasts (CellTitre-Glo); settings: Mus musculus, Fibroblast, 3 h, MDF cells, TSI cocktail (TNF, Smac mimetic, IDN-6556), read-out: Inhibition of TSI-induced necroptosis (IC50 cell-based assay) in MDF
Procedure: Cellular Assay: Screening Compounds for Inhibition of TSI Induced Necroptosis in, 384 well plate format. • Cell Line ID: Immortalised Mouse Dermal Fibroblasts (MDFs). • Cell Concentration (cells/well): Final cell density is 2200 cells per well. • Cell growth medium: DMEM medium+7.4% Fetal Bovine Serum (FBS). Cells are cultured in Corning 150 cm^2 tissue culture flasks with vented caps at 37° C./10% CO2. • Incubation: Plates were incubated for 30 minutes following addition of compounds and then 3 hours incubation with death stimuli (TSI cocktail) at 37° C./10% CO2 in a humidified incubator. • Compound concentration: 36 μM starting concentration, 1:3 dilution, 10 point • DMSO final concentration (% v/v): 0.3%. Compounds in TSI Cocktail (T: TNF; S: Smac Mimetic; I: IDN-6556) and their Final Concentrations: • rhTNF (100 ng/ml) • Compound A (500 nM)—Smac mimetic, Tetralogic and SYNthesis med chem • IDN-6556 (10 μM)—Selleckchem (S7775)
The cellular assay was carried out according to the following steps: • 1. Each well was prepared by sequential addition of: • a. 40 μL of cell suspension (5.5×10^4 cells/mL) was added to each well to provide a final cell concentration of 2,200 cells per well. • b. After 24 hours, DMSO (control; columns 1-2 and 23-24) or compound in DMSO—addition was performed using acoustic transfer of nL volumes of stock compound to give final test concentrations of 36, 12, 4, 1.3, 0.44, 0.148, 0.049, 0.016, 0.005 and 0.002 μM. All wells were backfilled with DMSO to a final total volume in the well of 100 nL. • c. Following compound/DMSO addition in step (b), Plates were incubated for 30 minutes at 37° C./10% CO2 in a humidified incubator and then 10 μL of 5×TSI cocktail (except to positive controls; columns 2 and 24) was added to each well. • 2. After 3 hours, plate was removed from the 37° C. incubator and equilibrated to room temperature for 15 minutes. • 3. 15 μL of room temperature CellTitre-Glo2™ (Promega™) was added to each well. • 4. Shook plates for 2 minutes (˜600 rpm) and incubated at room temperature for 15 minutes to allow signal to stabilise. • 5. Read luminescence readout on a plate reader.
Percent viability was calculated for each compound according to equation (2): […]
10 point titration curves were fitted with the 4 parameter logistic nonlinear regression model and the IC50 reported reflect the inflection point of the curve for curve fitting.
• Assay involving the TSI cocktail (T: TNF; S: Smac mimetic; I: IDN-6556): TSI treatment ensures that cells specifically undergo necroptotic cell death. TNF activates the TNF receptor, Smac mimetic directs the signal away from proinflammatory signaling and toward the RIPK1/RIPK3-mediated cell death pathways, and IDN-6556 (Caspase inhibitor) ensures that the apoptotic response is blocked leaving only the programmed necrosis response. The compounds' activity (solution in DMSO) tested in this TSI-induced assay was evaluated by determining the number of viable cells in culture by measuring the amount of ATP present as measured by CelltiterGlo.

`C[C@H](Oc1cc(-c2nn(C)c3c(-c4cnn(C5CCOCC5)c4)cnc(N)c23)ccc1NS(=O)(=O)C(F)F)c1cccc(Cl)c1` [Compound 122, (S)-N-(4-(4-amino-1-methyl-7-(1-(tetrahydro-2H-pyran-4-yl)-1H-pyrazol-4-yl)-1H-pyrazolo[4,3-c]pyridin-3-yl)-2-(1-(3-chlorophenyl)ethoxy)phenyl)-1,1-difluoromethanesulfonamide] was tested, and the IC50 (U937 cells) was over 10 µM and the IC50 [1] was 1 to 10 µM.

Compound `C[C@H](Oc1cc(-c2nn(C)c3c(-c4ccc5c(cnn5C)c4)cnc(N)c23)ccc1NS(=O)(=O)C(F)F)c1ccc(F)cc1` [Compound 166, (S)-N-(4-(4-amino-1-methyl-7-(1-methyl-1H-indazol-5-yl)-1H-pyrazolo[4,3-c]pyridin-3-yl)-2-(1-(4-fluorophenyl)ethoxy)phenyl)-1,1-difluoromethanesulfonamide] has an IC50 (U937 cells) of over 10 µM and an IC50 [1] of 1 to 10 µM.

In the case of `C[C@H](Oc1cc(-c2nn(C)c3c(-c4cnn(CC(F)(F)F)c4)cnc(N)c23)ccc1NS(=O)(=O)C(F)F)c1ccc(F)cc1` [Compound 116, (S)-N-(4-(4-amino-1-methyl-7-(1-(2,2,2-trifluoroethyl)-1H-pyrazol-4-yl)-1H-pyrazolo[4,3-c]pyridin-3-yl)-2-(1-(4-fluorophenyl)ethoxy)phenyl)-1,1-difluoromethanesulfonamide], the IC50 (U937 cells) is reported as over 10 µM and the IC50 [1] is reported as 1 to 10 µM.

Compound `C[C@H](Oc1cc(-c2nn(C)c3c(-c4cnn(C5CCCC5)c4)cnc(N)c23)ccc1NS(=O)(=O)C(F)F)c1ccc(F)cc1` [Compound 30, (S)-N-(4-(4-amino-7-(1-cyclopentyl-1H-pyrazol-4-yl)-1-methyl-1H-pyrazolo[4,3-c]pyridin-3-yl)-2-(1-(4-fluorophenyl)ethoxy)phenyl)-1,1-difluoromethanesulfonamide] has an IC50 (U937 cells) of over 10 µM and an IC50 [1] of 1 to 10 µM.

`Cn1nc(-c2ccc(NS(=O)(=O)C(F)F)c(OCc3ccc(F)cc3)c2)c2c(N)ncc(-c3cnn(C4CCOCC4)c3)c21` [Compound 13, N-(4-(4-amino-1-methyl-7-(1-(tetrahydro-2H-pyran-4-yl)-1H-pyrazol-4-yl)-1H-pyrazolo[4,3-c]pyridin-3-yl)-2-((4-fluorobenzyl)oxy)phenyl)-1,1-difluoromethanesulfonamide] showed an IC50 (U937 cells) of over 10 µM and an IC50 [1] of 1 to 10 µM.

`CC(n1cc(-c2cnc(N)c3c(-c4ccc(NS(=O)(=O)C(F)F)c(O[C@@H](C)c5ccc(F)cc5)c4)nn(C)c23)cn1)C(F)(F)F` (stereo partly drawn) [Compound 142, N-(4-(4-amino-1-methyl-7-(1-(1,1,1-trifluoropropan-2-yl)-1H-pyrazol-4-yl)-1H-pyrazolo[4,3-c]pyridin-3-yl)-2-((S)-1-(4-fluorophenyl)ethoxy)phenyl)-1,1-difluoromethanesulfonamide] gave an IC50 (U937 cells) of over 10 µM and an IC50 [1] of 1 to 10 µM.

`Cc1c(-c2cnc(N)c3c(-c4ccc(NS(=O)(=O)C(F)F)c(O[C@@H](C)c5ccc(F)cc5)c4)nn(C)c23)cnn1C1CCN(C)C(C)(C)C1` (stereo partly drawn) [Compound 157, N-(4-(4-amino-1-methyl-7-(5-methyl-1-(1,2,2-trimethylpiperidin-4-yl)-1H-pyrazol-4-yl)-1H-pyrazolo[4,3-c]pyridin-3-yl)-2-((S)-1-(4-fluorophenyl)ethoxy)phenyl)-1,1-difluoromethanesulfonamide] was tested, and the IC50 (U937 cells) was over 10 µM and the IC50 [1] was 1 to 10 µM.

Work on `C[C@H](Oc1cc(-c2nn(C)c3c(-c4cnn(C5CCN(CC(F)(F)F)C(C)(C)C5)c4)cnc(N)c23)ccc1NS(=O)(=O)C(F)F)c1ccc(F)cc1` (stereo partly drawn) [Compound 167, N-(4-(4-amino-7-(1-(2,2-dimethyl-1-(2,2,2-trifluoroethyl)piperidin-4-yl)-1H-pyrazol-4-yl)-1-methyl-1H-pyrazolo[4,3-c]pyridin-3-yl)-2-((S)-1-(4-fluorophenyl)ethoxy)phenyl)-1,1-difluoromethanesulfonamide] yielded an IC50 (U937 cells) of 1 to 10 µM and an IC50 [1] of under 0.1 µM.

With `[2H]C([2H])([2H])N1CCC(n2cc(-c3cnc(N)c4c(-c5ccc(NS(=O)(=O)C(F)F)c(O[C@@H](C)c6ccc(F)cc6)c5)nn(C)c34)cn2)CC1` [Compound 103] the IC50 (U937 cells) was over 10 µM and the IC50 [1] was 1 to 10 µM.

`Cn1nc(-c2ccc(NS(=O)(=O)C(F)F)c(OCc3ccc(Cl)c(F)c3)c2)c2c(N)ncc(-c3cnn(C4CCOCC4)c3)c21` [Compound 132, N-(4-(4-amino-1-methyl-7-(1-(tetrahydro-2H-pyran-4-yl)-1H-pyrazol-4-yl)-1H-pyrazolo[4,3-c]pyridin-3-yl)-2-((4-chloro-3-fluorobenzyl)oxy)phenyl)-1,1-difluoromethanesulfonamide] was tested, and the IC50 (U937 cells) was over 10 µM and the IC50 [1] was 1 to 10 µM.

Work on `CC(=O)N1CCC(n2cc(-c3cnc(N)c4c(-c5ccc(NS(=O)(=O)C(F)F)c(O[C@@H](C)c6ccc(F)cc6)c5)nn(C)c34)cn2)CC1` [Compound 109, (S)—N-(4-(7-(1-(1-acetylpiperidin-4-yl)-1H-pyrazol-4-yl)-4-amino-1-methyl-1H-pyrazolo[4,3-c]pyridin-3-yl)-2-(1-(4-fluorophenyl)ethoxy)phenyl)-1,1-difluoromethanesulfonamide] yielded an IC50 (U937 cells) of over 10 µM and an IC50 [1] of 0.1 to 1 µM.

For `C[C@H](Oc1cc(-c2nn(C)c3c(-c4cnn(C5CC6(C5)CN(C)C6)c4)cnc(N)c23)ccc1NS(=O)(=O)C(F)F)c1ccc(F)cc1` [Compound 99, (S)-N-(4-(4-amino-1-methyl-7-(1-(2-methyl-2-azaspiro[3.3]heptan-6-yl)-1H-pyrazol-4-yl)-1H-pyrazolo[4,3-c]pyridin-3-yl)-2-(1-(4-fluorophenyl)ethoxy)phenyl)-1,1-difluoromethanesulfonamide], the IC50 (U937 cells) was over 10 µM and the IC50 [1] was 1 to 10 µM.

For `C[C@H](Oc1cc(-c2nn(C)c3c(-c4cnn(C5CCN(C)C6(CC6)C5)c4)cnc(N)c23)ccc1NS(=O)(=O)C(F)F)c1ccc(F)cc1` (stereo partly drawn) [Compound 145, N-(4-(4-amino-1-methyl-7-(1-(4-methyl-4-azaspiro[2.5]octan-7-yl)-1H-pyrazol-4-yl)-1H-pyrazolo[4,3-c]pyridin-3-yl)-2-((S)-1-(4-fluorophenyl)ethoxy)phenyl)-1,1-difluoromethanesulfonamide], the IC50 (U937 cells) was over 10 µM and the IC50 [1] was under 0.1 µM.

Work on `C[C@H](Oc1cc(-c2nn(C)c3c(-c4cnn(C(C)(C)CO)c4)cnc(N)c23)ccc1NS(=O)(=O)C(F)F)c1ccc(F)cc1` [Compound 97, (S)-N-(4-(4-amino-7-(1-(1-hydroxy-2-methylpropan-2-yl)-1H-pyrazol-4-yl)-1-methyl-1H-pyrazolo[4,3-c]pyridin-3-yl)-2-(1-(4-fluorophenyl)ethoxy)phenyl)-1,1-difluoromethanesulfonamide] yielded an IC50 (U937 cells) of over 10 µM and an IC50 [1] of 1 to 10 µM.

`C[C@H](Oc1cc(-c2nn(C)c3c(-c4cnn(CCC(F)(F)F)c4)cnc(N)c23)ccc1NS(=O)(=O)C(F)F)c1ccc(F)cc1` [Compound 131, (S)-N-(4-(4-amino-1-methyl-7-(1-(3,3,3-trifluoropropyl)-1H-pyrazol-4-yl)-1H-pyrazolo[4,3-c]pyridin-3-yl)-2-(1-(4-fluorophenyl)ethoxy)phenyl)-1,1-difluoromethanesulfonamide] was tested, and the IC50 (U937 cells) was over 10 µM and the IC50 [1] was 1 to 10 µM.

For `C[C@H](Oc1cc(-c2nn(C)c3c(-c4cnn(C5C[C@H]6CNC[C@H]6C5)c4)cnc(N)c23)ccc1NS(=O)(=O)C(F)F)c1ccc(F)cc1` (stereo partly drawn) [Compound 163, N-(4-(4-amino-1-methyl-7-(1-((3aR,6aS)-octahydrocyclopenta[c]pyrrol-5-yl)-1H-pyrazol-4-yl)-1H-pyrazolo[4,3-c]pyridin-3-yl)-2-((S)-1-(4-fluorophenyl)ethoxy)phenyl)-1,1-difluoromethanesulfonamide], the IC50 (U937 cells) was over 10 µM and the IC50 [1] was 1 to 10 µM.
